Source: article PMC9525908, “α-Crystallin chaperone mimetic drugs inhibit lens γ-crystallin aggregation: Potential role for cataract prevention” (The Journal of Biological Chemistry, 2022)
Positions count from the first letter of the chain named. “Also recorded” adds a separate entry of the source.

Experiments:
WT-HγD crystallin = target: T1, WT-HγD crystallin (Homo sapiens, UniProt P07320); experiment: Thermal unfolding of WT-HγD by fluorescence ratio (Tm); format: biochemical; conditions: for Tm: 10 μM WT-HγD, 100 μM drug, fluorescence ratio 360/330 nm, control 81 °C; for Tm of HγD-nat: 100 μM agent, 360/320 nm ratio, 78 ± 0.1 °C without agent; for Elevation of Tm of HγD: versus control 81 °C
T1 construct: made in house; host or cells: E. coli BL21(DE3) pLysS, pET3d vector
T1 sequence (P07320 1-174): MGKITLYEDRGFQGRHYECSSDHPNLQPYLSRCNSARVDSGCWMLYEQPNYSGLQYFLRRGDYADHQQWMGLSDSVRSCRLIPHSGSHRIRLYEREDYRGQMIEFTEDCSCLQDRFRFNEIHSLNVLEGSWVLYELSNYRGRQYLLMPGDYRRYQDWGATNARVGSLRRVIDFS
Excerpt: His-tag free recombinant HγD crystallin produced in Escherichia coli using pET3d or pET17b expression vector was used to investigate the effects of compounds C and G against thermal-induced unfolding and aggregate formation. The antiaggregation potency of drug C and G was reconfirmed by dynamic light scattering (DLS) (Fig. 2A). […] There is a decrease in the size of aggregates from as high as 7261 nm without drugs to 30.5 nm with drug C and 84.9 nm with drug G. Drug M has moderate activity with mean aggregate size of 569 nm radius (Table S2). […] Furthermore, we investigated whether these drugs can prevent thermal unfolding of HγD (Fig. 2C). […] It is the temperature at which 50% of the protein unfolds.
(§1) Thermal denaturation study was monitored using fluorescence spectroscopy. Protein solutions (10 μM) in the presence and absence of drugs or bis-ANS (100 μM) were heated continuously from 30 to 95 °C, and the fluorescence data were collected every 5 °C after 1 min equilibration at the given temperature. Unfolding data were fit to Greene and Pace’s two-state model ([82]) using GraphPad Prism software (GraphPad Software, Inc).

HγD-ox [1] = target: T2, HγD-ox (Homo sapiens, UniProt P07320); experiment: Thermal unfolding (Tm) of oxidized HγD; format: biochemical; conditions: 100 μM agent, 360/320 nm ratio; 68 ± 0.07 °C without agent
T2 construct: made in house; host or cells: Escherichia coli BL21(DE3) pLysS, pET3d vector
T2 sequence (P07320 1-174): T1 sequence (P07320 1-174)
Excerpt: (§2) In postsubmission experiments, we attempted to find mechanistic clues relevant to the use of an H2O2 oxidation step prior to the thermal stress used during the initial drug screen. For this reason, we did a comparative study of oxidized (HγD-ox) versus native HγD (HyD-nat), hypothesizing that bis-ANS would both act like the drugs and provide information on the role of exposed hydrophobicity ([40]). HγD was oxidized in diethylenetriaminepentaacetic acid […] phosphate buffer to facilitate hydroxyl radical formation and protein damage, followed by dialysis against DTPA-treated buffer to eliminate the known proaggregating effects of divalent metals ([32]) in the subsequent steps. […] Overall protective effects were more pronounced for the oxidized than nonoxidized form of HγD. […] In the hope to obtain clues on the impact of bis-ANS, drugs C, G, and M on protein aggregation status, native PAGE was performed (Fig. 3G). Polymers greater than 250 kD are present in unheated HγD-nat but only the size of 75 to 100 kD in HγD-ox. […] Other techniques will be needed to assess the relationship between drugs and aggregate size.
as §1

[2] = test system: Total mouse gamma crystallins; experiment: H2O2 oxidation-mediated aggregation of total mouse γ-crystallins, 600 nm; format: biochemical; conditions: 2.5 mg/ml, H2O2, 18 h at 37 °C
Method: In preparation for possible in vivo testing, the drugs were tested against native mouse γ-crystallins. Total gamma crystallins (2.5 mg/ml) were incubated with H2O2 for 18 h at 37 °C with increasing concentrations of drugs X, C, and G, or a combination thereof. Oxidative stress–mediated aggregation at 600 nm was suppressed by drug C but poorly by drug G (Fig. S4A, left panel). […] The baseline increase at 50 μM could reflect a destabilizing effect of the drugs because of a pro-oxidative mechanism followed by stabilizing chaperone-like effect. […] There is 52.6% more aggregation of OPJ-MγS in comparison to WT-MγS under same conditions of thermal stress. […] Fluorescence microscopy using Nile Red provides a pictorial rendition of the type and size of aggregates formed on heating WT-MγS and OPJ-MγS, with and without drugs (Fig. S4F). […] The bis-ANS fluorescence inhibition pattern is again in complete agreement with the previous results for HγD (Fig. 2F). […] As for the reproducibility of these findings, see Fig. S7 and the warning note under Rigor and reproducibility section.

W43R mutant of HγD = target: T3, W43R mutant of HγD (Homo sapiens, UniProt P07320, W43R); experiment: Kinetic turbidity assay at 42 °C of W43R mutant; format: biochemical; conditions: for Effect on aggregation of W43R mutant: 0–500 μM, 42 °C for 200 min, G at 400 and 500 μM; for inhibition at 500 µM: 500 μM drug, 42 °C, 200 min, read-out: Inhibition of aggregation (%) W43R
T3 construct: made in house; host or cells: E. coli BL21(DE3) pLysS
T3 sequence (P07320 1-174 W43R): T1 sequence (P07320 1-174) with W43R
Method: Aggregation kinetics assays at 600 nm in the presence of varying concentrations (0, 100, 200, 300, 400, and 500 μM) of our selected drugs were also performed on mutants of HγD (W43R, W42Q, R14C, and R58H) and MγS (F9S) at a concentration of 1 mg/ml in 50 mM K3PO4 buffer (pH 7.2) in a total volume of 100 μl. WT-HγD and WT-MγS crystallin served as controls for their respective mutant versions. For W43R mutant, aggregation assay was done at 42 °C for a total of 200 min. Absorbance was monitored every 10 min. For R14C and R58H mutants, end-point turbidity assay was done at 72 °C for 20 min. […] All the experiments were run in duplicates or triplicates.

HγD-ox [3] = target: T2, HγD-ox; experiment: Turbidity (600 nm) of oxidized HγD heated 10 min at 72 °C; format: biochemical; conditions: 1.4 mg/ml with DTPA, 100 and 500 μM bis-ANS, 100 μM drug C, 500 μM drug M
Excerpt: as §2

HγD = target: T4, HγD (Homo sapiens, UniProt P07320); conditions: 600 μM drug C, tested by an outside laboratory; cited from earlier work
T4 construct: made in house; host or cells: E. coli BL21(DE3) pLysS, pET3d vector
T4 sequence (P07320 1-174): T1 sequence (P07320 1-174)

15N-labeled HyD = target: T5, 15N-labeled HyD (Homo sapiens, UniProt P07320); experiment: NMR HSQC of 15N-labeled HyD with drug C; format: binding; conditions: 100 μM protein, 600 μM drug C, 5% DMSO
T5 sequence (P07320 1-174): T1 sequence (P07320 1-174)

Row | Compound | Tm (WT-HγD crystallin) | Tm of HγD-nat (WT-HγD crystallin) | Elevation of Tm of HγD (WT-HγD crystallin) | Tm of HγD-ox (HγD-ox [1]) | Oxidative stress–mediated aggregation at 600 nm [2] | Effect on aggregation of W43R mutant (W43R mutant of HγD) | inhibition at 500 µM (W43R mutant of HγD) | Effect on aggregation/turbidity of HγD-ox (HγD-ox [3]) | Effect on heat-mediated aggregation of HγD (HγD) | HSQC spectra, drug-treated versus control sample (15N-labeled HyD)
1 | CC(C)=CCC[C@]1(C)C=Cc2c(O)c3c(c(CC=C(C)C)c2O1)O[C@]12C(=C[C@@H]4C[C@H]1C(C)(C)O[C@@]2(C/C=C(/C)C(=O)O)C4=O)C3=O [drug G, Gambogic acid] | 85 °C | increased all Tm values to the maximum value | 4 °C | increased all Tm values to the maximum value | poorly | protected the mutant against aggregation | 52% | – | – | –
2 | O=C(O)CCCCCCCCCCCC[C@@H]1C=CCC1 [drug M, Chaulmoogric acid] | – | – | – | – | – | no effect | 14% | strongly suppressed; also recorded: protected oxidized HγD | – | –
3 | Cc1cc(C(C#N)c2ccc(Cl)cc2)c(Cl)cc1NC(=O)c1cc(I)cc(I)c1O (centres unmarked) [drug C, Closantel] | 85 °C | increased all Tm values to the maximum value | 4 °C | increased all Tm values to the maximum value | suppressed | worsened the aggregation | -34% | strongly suppressed | worsening | no significant differences
